Literature values as cited in US20140322314A1, “Omega-3 Fatty Acid Formulations for Use as Pharmaceutical Treatment” (Matinas BioPharma, Inc., priority 2013, published 2014).

Details: in vivo

| SMILES | bioavailable | absorbed at rates |
| --- | --- | --- |
| CC(C)n1c(/C=C/C(O)CC(O)CC(=O)O)c(-c2ccc(F)cc2)c2ccccc21 (centres unmarked) [fluvastatin] | approximately 24% |  |
| CC[C@H](C)C(=O)O[C@H]1C[C@@H](C)C=C2C=C[C@H](C)[C@H](CC[C@@H]3C[C@@H](O)CC(=O)O3)[C@H]21 [lovastatin] |  | about 30% |
